Source: US7858825B2, “Acid and base stable diphenylmethanol derivatives and methods of use” (Colorado State University Research Foundation, priority 2007, dated 2010)

Columns and labels:
[1] = Cleavage (deprotection) of the esters 4d and of trifluoroacetate 5a; type: physicochemical
Description: Thus, compounds of the invention enabled a wide range of organic reactions for the generation of libraries of MraY inhibitors in solution (Scheme III). Compounds of the invention, e.g., (2,6-dicholoro-4-methoxyphenyl)(2,4-dichlorophenyl)methanol, can also be used as linkers to immobilize carboxylic acids, amines, alcohols, as well as other functional groups which can, however, be cleaved by 20% TFA.
The trifluoroacetate 5a was also stable under most acidic conditions tested in Table 1 and SiO2, but could easily be cleaved by aq NH3 in THF-MeOH within 3 h to regenerate 3d in quantitative yield (Scheme 2-2).
The ester of 3d was dissolved in 20% TFA in CH2Cl2 (0.3 M) and kept for 1 h at rt. Volatiles were evaporated in vaccuo to provide the carboxylic acid and 5a. The carboxylic acid was separated from 5d by a silica gel plug (10:1, hexanes:EtOAc to 5:1, CHCl3:MeOH) or a back-extraction procedure [solvent system: EtOAc-water (for the extraction of 5d under a basic condition (NaHCO3), CHCl3-water (for the extraction of the carboxylic acid under an acidic condition (dil. HCl)].

[2] = Stability and cleavage of linker 16 esters; type: physicochemical
Description: One of the linkers of the invention, (2-chloro-4-methoxyphenyl)(2,4-dichlorophenyl)methanol 16 was used to immobilize carboxylic acids. The linker was stable under a Boc-deprotection conditions (TsOH.H2O/THF—CH2Cl2). In addition, unlike photolytic (350 nm, 72 h) or Pd-mediated or base-catalyzed cleavage of linkers, the esters of linker 16 was efficiently be cleaved via volatile acids such as 30% TFA/CH2Cl2 or HF.pyridine within 1 h. The progress of each step was conveniently be monitored by LC-MS after the treatment of such Brønsted acids followed by evaporation of volatiles.

time for cleavage to regenerate 3d ([1]; aq NH3 in THF-MeOH) | stability under acidic conditions ([1]; most acidic conditions tested in Table 1 and SiO2) | time for cleavage of the esters of the linker ([2]; 30% TFA/CH2Cl2 or HF.pyridine) | stability of linker ([2]; Boc-deprotection conditions (TsOH.H2O/THF—CH2Cl2)) | SMILES
≤ 3 h | stable |  |  | COc1cc(Cl)c(C(OC(=O)C(F)(F)F)c2ccc(Cl)cc2Cl)c(Cl)c1 (stereo not shown) [5a, (2,6-dichloro-4-methoxyphenyl)(2,4-dichlorophenyl)methyl 2,2,2-trifluoroacetate]
 |  | ≤ 1 h | stable | COc1ccc(C(O)c2ccc(Cl)cc2Cl)c(Cl)c1 (stereo not shown) [compound 16, (2-chloro-4-methoxyphenyl)(2,4-dichlorophenyl)methanol]
